The results in this text go back to patent US5962516A, “Immunosuppressive compounds and methods” (priority 1999, dated 1999).

A short description of data set [1]: Stability in blood serum by TLC. In kind it is in vitro ADME. Conditions: rat serum, 37° C. The procedure:
The stability of triptolide succinate in blood serum was determined as detailed in Example 10B. In this study, a solution of triptolide succinate (YM-262, free acid) in DMSO was mixed with rat serum and incubated at 37° C. The mixture was assayed periodically by thin layer chromatography (TLC) to follow the hydrolysis of the triptolide succinate over time.
A solution of triptolide succinate (free acid; YM-262) in DMSO was made at a concentration of 25 mg/ml, and 0.1 ml of this solution was mixed with 0.5 ml of rat serum. The mixture was incubated at 37° C. Aliquots of the mixture were taken at 1, 3, 5, 15, 45 minutes and 18 hours and analyzed by thin layer chromatography (TLC). The TLC plates were developed in 1:5 CH2 Cl2 /Et2 O. After development, the plates were treated with iodine vapor and examined under a UV lamp. Triptolide and triptolide succinate were used as reference compounds (Rf =0.60 and 0.45, respectively).

Data set [2] in a line: Cytotoxicity by MTT reduction reported with the MLR assay (Table II). It counts as cell-based. Conditions: cytotoxic when toxicity greater than 25%. The procedure:
(§1) Potential cytotoxicity of the test samples was assessed by the measurement of their effect on the reduction of MTT (3-[4,5-Dimethylthiazole-2-yl]-2,5-diphenyltetrazolium bromide) by cultured cells. MTT, a yellow-colored compound, is reduced by mitochondrial enzymes to form the purple crystalline reduction product formazane, providing an index of cellular respiration on viable cells as well as a sensitive assay for cytotoxicity (Mossmann, 1983).
(§2) The cytotoxicity was assessed in cultured human PBMC and mouse thymocytes. A stock solution of MTT (Sigma) at 5 mg/ml in phosphate buffered saline, pH 7.4, was prepared and stored in the dark at 4° C. PBMCs or thymocytes were cultured with various concentrations of test samples in flatbottom 96-well tissue culture plates (Costar) under the same conditions as those described above, but the stimulants (X-35 or IL-1+PHA) were replaced by appropriate medium. Untreated cells with medium alone and without the test samples were used as controls. After incubation for 21 hours, 25 μl of MTT solution was added to each well. After an additional three hours of incubation, the experiment was terminated by addition of a solution of 10% sodium dodecyl sulfate in 0.01 N HCl. Following overnight incubation at 37° C. to solubilize the formazane crystals, optical density was determined at 570-650 nm in microplate reader. […]
A general note: Tetrazolium assays rely on reduction of a dye to a coloured formazan, in cell work by metabolically active cells.

Data set [3] in a line: Cytotoxicity by MTT reduction reported with the IL-1 assay (Table I). In kind it is cell-based. Conditions: mouse, thymocytes, cytotoxic when toxicity greater than 25%. The procedure: as §1, §2
Data set [4] has as its system heart transplant rejection. As to the kind of experiment: Cardiac allograft survival (heterotopic heart transplantation in rats). Conditions: for mean survival time of allograft / mean survival time compared with underivatized triptolide: i.p.; for mean survival time of allograft: day -1 to 14; for mean survival time compared with underivatized triptolide: equimolar doses (YM-273 0.40, YM-274 0.33, T10 0.25 mg/kg). In kind it is in vivo, rat (Brown Norway donors, Lewis recipients). The text has this: Treatment of transplantation rejection, in accordance with the invention, is illustrated for rejection of an allograft by the in vivo heart transplantation model used in Example 14. The method involves a well-characterized rat model system (Ono and Lindsey, 1969) in which a transplanted heart is attached to the abdominal great vessels of an allogeneic recipient animal, and the viability of the transplanted heart is gauged by the heart's ability to beat in the recipient animal.
In one study, the animals were administered by intraperitoneal injections, from one day preceding to 14 days following heart transplantation, either control solution (5% ethanol, 10 ml/kg), triptolide (designated as T10), or with two concentrations each of YM-273 and YM-274. There were three animals in each group, except for the control group in which five animals were used.
Heterotopic whole heart transplantation was performed according to the standard method (Ono and Lindsey, 1969). The donors (Brown Norway rats, 200-255 g, Charles River, Wilmington, Mass.) and recipients (Adult male Lewis rats, 225-275g, Charles River) were anesthetized with sodium pentobarbital (40 mg/kg). Following adequate donor anticoagulation using heparin, the heart graft was removed and stored at 4° C. in PhysioSol Irrigation Solution (Abbott Laboratories, N. Chicago, Ill.). The ascending aorta and pulmonary artery were transected, and the vena cava and pulmonary veins were ligated. […] The cold ischemic time of all the cardiac grafts was less than 45 minutes. Graft heartbeat was monitored by abdominal palpation. The period of functional graft survival was measured as the number of days during which cardiac graft contractions could be detected by abdominal palpation. Results were confirmed by direct visualization at laparotomy.
Heart transplant recipient animals prepared as described above (3-5 animals/group) were treated with (i) control solution (5% ethanol, 10 ml/kg), (ii) YM-273 at 0.10 mg/kg and 0.40 mg/kg (FIG. 5A), (iii) YM-274 at 0.084 and 0.33 mg/kg (FIG. 5B), and (iv) and T10 (triptolide) 0.25 mg/kg (FIG. 6). In addition to showing the results for T10, FIG. 6 repeats the results from FIGS. 5A-5B for YM-273 and YM-274 at 0.40 and 0.33 mg/kg, respectively, such that their concentrations were equimolar relative to T10. All compounds were administered intraperitoneally. Treatment started on the day prior to surgery and continuing daily until postoperative day 14, or until the end of allograft survival.

Data set [5] can be described thus: Stability in water (D2O) by 1H NMR. In kind it is physicochemical. Conditions: room temperature, Succinate Sodium Salt. The procedure: Sodium triptolide succinate, designated YM-274, was dissolved in D2 O, and the aqueous solution was stored at room temperature.
A solution of sodium triptolide succinate (YM-274) in D2 O was prepared at a concentration of 3 mg/ml and stored at room temperature. The solution was analyzed by ^1 H NMR at intervals of 1, 3, 5, 15, 45, 90, 180 minutes; 1, 7, 14 days; and 1, 2, 3, and 5 months.

Converted amounts (≈) assume the structure as drawn. “Also recorded” adds a separate entry of the source. Where a name gives a salt, the structure may show the parent alone.

The CC50 is the concentration that lowers cell viability or growth by half. A lower CC50 goes with greater toxicity to the cells. For the compound `CC(C)[C@]12O[C@H]1[C@@H]1O[C@]13[C@]1(O[C@H]1C[C@H]1C4=C(CC[C@@]13C)C(=O)OC4)[C@@H]2O` [Triptolide, triptolide, reference compound], the “triptolide formed from triptolide succinate in serum, 15 minutes” value in data set [1] (15 minutes after addition of YM-262, TLC) is “a new spot corresponding to triptolide had appeared”. In data set [1] (45 minutes after addition of YM-262, TLC), the “triptolide formed from triptolide succinate in serum, 45 minutes” value is on record as “the triptolide spot had also disappeared”. Also, the CC50 at 24 h is 0.0133 µg/mL (≈ 0.0369 µM) in data set [2] and above 12.5 µg/mL in data set [3].
As for `CC(C)C12OC1C1OC13C1(C)CCC4=C(COC4=O)C1CC1OC13C2OC(=O)CCC(=O)O` (stereo not drawn) [YM-262, Triptolide Succinate], in data set [1], the “time for hydrolysis in blood serum to triptolide” value is at most 15 min and the “time for hydrolysis in serum to release free triptolide” value is recorded as “less than an hour”. Further, the “stability in blood serum, 3 minutes” value in data set [1] (3 minutes, TLC) is recorded as “only triptolide succinate was detected by TLC”. Also, the “stability in blood serum, 15 minutes” value in data set [1] (15 minutes, TLC) is given as “the triptolide succinate spot was gone”. The “stability in blood serum, 3 to 5 minutes” value in data set [1] (first 3 to 5 minutes, TLC) is listed as “most of the triptolide succinate remained”. The compound further gave a CC50 at 24 h in data set [3] above 12.5 µg/mL.
For the compound `CC(C)C12OC1C1OC13C1(C)CCC4=C(COC4=O)C1CC1OC13C2OC(=O)CCC(=O)O` (stereo not drawn) [YM-273, Triptolide Succinate Tris Salt], the “mean survival time of allograft” value in data set [4] (YM-273, 0.1 mg/kg) stood at 7 days; in data set [4] (YM-273, 0.4 mg/kg), 24 days. Moreover, the “mean survival time compared with control” value in data set [4] (YM-273, 0.4 mg/kg i.p.) was “substantial improvement over the control”. Besides, in data set [4], the “mean survival time compared with underivatized triptolide” value was “somewhat better than that seen with underivatized triptolide”.
For `CC(C)C12OC1C1OC13C1(C)CCC4=C(COC4=O)C1CC1OC13C2OC(=O)CCC(=O)O` (stereo not drawn) [YM-274, Triptolide Succinate Sodium Salt], the “mean survival time of allograft” value in data set [4] (YM-274, 0.0837 mg/kg) is recorded as 10 days. For the same compound, the “mean survival time compared with underivatized triptolide” value in data set [4] (Succinate Sodium Salt) is reported as “substantially better”. The “stability in aqueous solution, three months” value in data set [5] (3 months) is given as “no appreciable change in the NMR spectrum; also recorded: unchanged after three months in solution”. In data set [5] (5 months), the “stability in aqueous solution, five months” value is given as “Some decomposition was apparent; also recorded: some decomposition was observed”.
